Reference: patent US20070145618A1, “Methods of making microencapsulated delivery vehicles” (Kimberly-Clark Worldwide, Inc., priority 2005, published 2007)
Where two headings read alike, the source gives them in different places.

Assays:
[1] = particle size 149-355 micrometers; 35 wt % in mineral oil; added to 7.0 grams de-ionized water; compared with four other size ranges
Protocol: In this example, samples incorporating various size ranges of anhydrous calcium chloride suspended in mineral oil at 35 wt % were evaluated for their ability to generate heat upon introduction into water.
The five size ranges of anhydrous calcium chloride evaluated were: (1) less than 149 microns; (2) 149-355 microns; (3) 710-1190 microns; (4) 1190-2000 microns; and (5) 2000-4000 microns. The samples of anhydrous calcium chloride (Dow Chemical, Midland, Mich.) were dispersed in mineral oil (available as Drakeol 7 LT NF from Penreco, Dickinson, Tex.). The as received anhydrous calcium chloride were screened dry using a Gilson Sonic Sieve (Gilson Company, Inc. Columbus, Ohio) to create two sizes, a 1190-2000 micron size and a 2000-4000 micron size. These powders were then suspended at 35 wt % in mineral oil to form a slurry using a cowles mixing blade. To achieve the smaller size distributions, the anhydrous calcium chloride powder required further processing. […]
All five samples were then individually added to 7.0 grams de-ionized water and the resulting temperature rise was measured using a Barnant Scanning Thermocouple (available from Therm-X of California, Hayward, Calif.).

[2] = particle size less than 250 micrometers; 35 wt % in mineral oil; added to 7.0 grams de-ionized water; compared with three other size ranges
Protocol: In this example, samples incorporating various size ranges of anhydrous magnesium chloride suspended in mineral oil at 35 wt % were evaluated for their ability to generate heat upon introduction into water.
The four size ranges of anhydrous magnesium chloride evaluated were: (1) 1000-1500 microns; (2) 600-1000 microns; (3) 250-600 microns; and (4) less than 250 microns. To produce the samples of anhydrous magnesium chloride in mineral oil, the various size ranges of anhydrous magnesium chloride powder (Magnesium Interface Inc. (Vancouver, B.C., Canada) were suspended at 35 wt % in mineral oil (available as Drakeol 7 LT NF from Penreco, Dickinson, Tex.). To produce the samples having anhydrous magnesium chloride with size ranges of 1000-1500 microns, 600-1000 microns, and 250-600 microns, the as received anhydrous magnesium chloride powder was hand screened into the size ranges desired and the powders collected. These powders were suspended at 35 wt % in mineral oil using a cowles mixing blade. […]
All four samples were then added to 7.0 grams de-ionized water and the resulting temperature rise was measured using a J type Thermocouple (available from Omega Engineering, Inc., Stamford, Conn.).

Row | Structure (SMILES) | rate of heat release (heat generation rate) [1] | rate of heat release (heat generation rate) [2]
1 | [Ca+2].[Cl-].[Cl-] [anhydrous calcium chloride, calcium chloride] | highest rate | –
2 | [Cl-].[Cl-].[Mg+2] [anhydrous magnesium chloride, magnesium chloride] | – | highest rate
